target: T1, Human CB2 receptor (Homo sapiens, UniProt P34972); assay: Human CB2 receptor-binding assay (hCB2/CHO) for selectivity to CB1 receptors; settings: ratio of IC50 value for CB2/IC50 value for CB1
T1 construct: expressed in transfected cells; host or cells: CHO (hCB2/CHO), membrane fraction
Protocol: (1) Materials and Methods
(§1) a) Human CB1 receptor-binding assay: The binding assay was conducted in the same manner as described in Experiment 1.
b) Human CB2 receptor-binding assay: The binding assay was conducted in the same manner as described in Experiment 1, except that human CB2-expressing CHO cell line (hCB2/CHO) was used instead of hCB1 cell line. IC50 value of each test compound against the radioligand-binding to CB2 receptors was calculated in the manner as described in Experiment 1. Besides, selectivity to CB1 receptors was evaluated in terms of the ratio of IC50 value for CB2/IC50 value for CB1.

T1 sequence (P34972 whole entry): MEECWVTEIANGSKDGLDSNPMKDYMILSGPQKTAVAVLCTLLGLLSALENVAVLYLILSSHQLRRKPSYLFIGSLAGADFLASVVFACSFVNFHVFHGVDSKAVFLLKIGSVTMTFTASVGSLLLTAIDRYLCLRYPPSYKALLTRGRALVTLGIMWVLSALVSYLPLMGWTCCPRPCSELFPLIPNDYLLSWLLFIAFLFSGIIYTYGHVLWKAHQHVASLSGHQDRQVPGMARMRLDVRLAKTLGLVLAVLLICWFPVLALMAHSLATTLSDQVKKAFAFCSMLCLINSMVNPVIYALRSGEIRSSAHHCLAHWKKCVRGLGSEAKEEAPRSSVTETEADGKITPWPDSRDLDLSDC

Row | Selectivity | SMILES
1 | >500 | NC(=O)C1(NC(=O)c2cnn3c(-c4ccc(Cl)cc4)c(-c4ccccc4Cl)cnc23)CCS(=O)(=O)CC1 [Example A3, 3-[N-(4-carbamoyl-1,1-dioxo-tetrahydrothiopyran-4-yl)carbamoyl]-6-(2-chlorophenyl)-7-(4-chlorophenyl)pyrazolo[1,5-a]pyrimidine]

target: T2, Human CB1 receptor (Homo sapiens, UniProt P21554); assay: Human CB1 receptor binding assay ([3H]-CP55940, hCB1/CHO membrane fraction); settings: Experiment 1; inhibition of [3H]-CP55940 binding to hCB1/CHO membranes
T2 construct: host or cells: CHO (hCB1/CHO), membrane fraction
Protocol: [Human CB1 Receptor Binding Assay]
(1) Preparation of Human CB1 Receptor (Membrane Fraction):
Human CB1-expressing cell line: hCB1/CHO (#ES-110-C, Euroscreen)
Buffer A: 50 mM tris-HCl (pH 7.5) containing ethylenediaminetetraacetic acid (2.5 mM), MgCl2 (5 mM) and sucrose (200 mM)
Method) The receptor-expressing cells cultivated in the above medium were washed with phosphate buffer (×2 times) and thereto was added Buffer A (2 mL) under ice-cooling or 4° C. (the following procedures were also carried out at the same temperature). The cells were collected by using a cell-scraper, treated by a microtip-type ultrasonicator for 20 seconds (pulse-on: 2 sec, pulse-off: 1 sec) and centrifuged (500×g, 15 min). The supernatant was separated and centrifuged (43000×g, 60 min). The resultant pellet was suspended in Buffer A and homogenized with a potter-type homogenizer. To the homogenate was added an equal volume of 80% glycerol and stored at −80° C.
(2) Procedure of CB1 Receptor Binding Assay:
Buffer B: 50 mM tris-HCl (pH 7.5) containing ethylenediaminetetraacetic acid (2.5 mM), MgCl2 (5 mM) and bovine serum albumine (2 mg/mL, fatty acid-free, SIGMA-A7030)
Buffer C: 50 mM tris-HCl (pH 7.5) containing ethylenediaminetetraacetic acid (2.5 mM), MgCl2 (5 mM) and bovine serum albumine (2 mg/mL, SIGMA-A7906)
Coating solution: 0.3% ethyleneimine polymer
Radioligand: [^3H]-CP55940 (30 nM, 7992 dpm/μL, PerkinElmer, #NET-1051) prepared by diluting 8.3 μM solution of the radioligand with Buffer B
Method) Each well of the assay plate (96-well, Corning Costar Code#3371) was filled with Buffer B (140 μL), a solution of each test compound in dimethylsulfoxide (20 μL, […]), radioligand (20 μL) and membrane preparation (20 μL, 0.5 to 8.0 μg/20 μL) and the mixture was incubated at room temperature for 90 minutes to proceed the binding reaction. The reaction mixture was filtered through Unifilter GF/B (Packard#6005177) presoaked with the above coating solution to collect the membrane fraction. The plate was washed with Buffer C (200 μL×10 times) and dried at 50° C. for 1 hour and Microscinti 40 (40 μL/well) was added to each well. The bound radiolabel was quantitated by a scintilation counter (Top Count NXT, Packard). IC50 value of each test compound against the radioligand-binding to CB1 receptors was calculated on the basis of the quantitated radiolabel activity by using Microsoft Excel 2000 (Microsoft).
as §1

T2 sequence (P21554 whole entry): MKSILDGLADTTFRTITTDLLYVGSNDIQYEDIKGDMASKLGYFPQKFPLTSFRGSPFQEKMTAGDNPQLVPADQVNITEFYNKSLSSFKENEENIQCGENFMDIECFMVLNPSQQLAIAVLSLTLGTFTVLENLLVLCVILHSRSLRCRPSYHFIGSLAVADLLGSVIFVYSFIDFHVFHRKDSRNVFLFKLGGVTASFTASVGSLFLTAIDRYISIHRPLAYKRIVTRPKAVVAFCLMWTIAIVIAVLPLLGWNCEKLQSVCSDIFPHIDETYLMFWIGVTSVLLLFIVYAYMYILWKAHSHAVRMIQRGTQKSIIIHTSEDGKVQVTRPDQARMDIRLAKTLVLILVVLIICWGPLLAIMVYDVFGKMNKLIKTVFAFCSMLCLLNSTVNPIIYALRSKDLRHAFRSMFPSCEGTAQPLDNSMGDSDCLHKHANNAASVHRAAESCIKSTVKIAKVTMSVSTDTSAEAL

Row | SMILES | IC50 [nM]
2 | CNC(=O)C1(NC(=O)c2cnn3c(-c4ccc(Cl)cc4)c(-c4ccccc4Cl)cnc23)CCCCC1 [Example A5, 6-(2-chlorophenyl)-7-(4-chlorophenyl)-3-[N-[1-(N-methylcarbamoyl)cyclohexyl]-carbamoyl]pyrazolo[1,5-a]pyrimidine] | 10 to 100
3 | CC1(NC(=O)c2cnn3c(-c4ccc(Cl)cc4)c(-c4ccccc4Cl)cnc23)CCCCC1 [Example A10] | 10 to 100
4 | Cc1nn2c(-c3ccc(C(F)(F)F)cc3)c(-c3ccccc3Cl)cnc2c1C(=O)NC1(C#N)CCCCC1 [Example A13] | 10 to 100
5 | CC(NC(=O)c1cnn2c(-c3ccc(Cl)cc3F)c(-c3ccccc3Cl)cnc12)c1ccccn1 (centres unmarked) [Example A15] | 10 to 100

Other lines, results leading:

Row | IC50 [nM] | SMILES
6 | 10 to 100 | CNS(=O)(=O)c1nn2c(-c3ccc(Cl)cc3)c(-c3ccccc3Cl)cnc2c1C(=O)N[C@@H]1CCS(=O)(=O)C1 [Example B6]
7 | 10 to 100 | CN(NC(=O)c1c(S(=O)(=O)N(C)C)nn2c(-c3ccc(Cl)cc3)c(-c3ccccc3Cl)cnc12)c1ccccn1 [Example B12]
8 | < 10 | NS(=O)(=O)c1nn2c(-c3ccc(Cl)cc3)c(-c3ccccc3Cl)cnc2c1C(=O)NN1CCCC1 [Example B14]
9 | < 10 | CN(NC(=O)c1c(S(N)(=O)=O)nn2c(-c3ccc(Cl)cc3)c(-c3ccccc3Cl)cnc12)c1ccccn1 [Example B15]
10 | < 10 | N#Cc1ccccc1-c1cnc2c(C(=O)NC3CCCC3)c(S(N)(=O)=O)nn2c1-c1ccc(Cl)cc1 [Example B23]
11 | 10 to 100 | NC(=O)CNS(=O)(=O)c1nn2c(-c3ccc(Cl)cc3)c(-c3ccccc3Cl)cnc2c1C(=O)NC1CCCC1 [Example B26]
12 | 10 to 100 | NC(=O)C1(NC(=O)c2c(S(N)(=O)=O)nn3c(-c4ccc(Cl)cc4)c(-c4ccccc4Cl)cnc23)CCCCC1 [Example B30, 3-[N-(1-carbamoylcyclohexyl)carbamoyl]-6-(2-chlorophenyl)-7-(4-chlorophenyl)-2-sulfamoylpyrazolo[1,5-a]pyrimidine]

same assay, conditions: Experiment 2; same method as Experiment 1

Row | SMILES | IC50 [nM]
13 | NC(=O)C1(NC(=O)c2cnn3c(-c4ccc(Cl)cc4)c(-c4ccccc4Cl)cnc23)CCS(=O)(=O)CC1 [Example A3, 3-[N-(4-carbamoyl-1,1-dioxo-tetrahydrothiopyran-4-yl)carbamoyl]-6-(2-chlorophenyl)-7-(4-chlorophenyl)pyrazolo[1,5-a]pyrimidine] | 10 to 100
14 | CC1(NC(=O)c2c(OCCO)nn3c(-c4ccc(Cl)cc4)c(-c4ccccc4Cl)cnc23)CCS(=O)(=O)C1 (centres unmarked) [Example A140] | < 10
15 | N#Cc1ccccc1-c1cnc2c(C(=O)NC3(C(N)=O)CCS(=O)(=O)CC3)cnn2c1-c1ccc(C(F)(F)F)cc1 [Example A146] | 10 to 100
16 | Cc1nn2c(-c3ccc(Cl)cc3)c(-c3ccccc3Cl)cnc2c1C(=O)NC1(C(N)=O)CCS(=O)(=O)CC1 [Example A175] | 10 to 100

Further lines, results first:

Row | IC50 [nM] | SMILES
17 | < 10 | CC1(NC(=O)c2c(CO)nn3c(-c4ccc(C(F)(F)F)cc4)c(-c4ccccc4Cl)cnc23)CCS(=O)(=O)CC1 [Example B32, 6-(2-chlorophenyl)-7-(4-trifluoromethylphenyl)-2-hydroxymethyl-3-[N-(4-methyl-1,1-dioxotetrahydrothiopyran-4-yl)-carbamoyl]pyrazolo[1,5-a]pyrimidine]
18 | < 10 | CNC(=O)c1nn2c(-c3ccc(C(F)(F)F)cc3)c(-c3ccccc3Cl)cnc2c1C(=O)NC1(C)CCS(=O)(=O)CC1 [Example B36]
19 | < 10 | CC1(NC(=O)c2c(S(N)(=O)=O)nn3c(-c4ccc(Cl)cc4)c(-c4ccccc4Cl)cnc23)CC1 [Example B74]
20 | 10 to 100 | CN(C)NC(=O)c1c(S(N)(=O)=O)nn2c(-c3ccc(C(F)F)cc3)c(-c3ccccc3Cl)cnc12 [Example B84]
